Results taken from article PMC7571175, “N-Benzyl Residues as the P1′ Substituents in Phosphorus-Containing Extended Transition State Analog Inhibitors of Metalloaminopeptidases” (Molecules, 2020).
Where two headings read alike, the source gives them in different places.

Columns and labels:
[1] = molecular target: T1, microsomal alanyl aminopeptidase from porcine kidney (SsAPN) (Sus scrofa, UniProt P15145); experiment: Inhibition of porcine kidney alanyl aminopeptidase (enzyme kinetics); format: biochemical; conditions: porcine APN; compounds assayed as racemic mixtures
T1 construct: Microsomal alanyl aminopeptidase from porcine kidney (SsAPN) was purchased from Sigma-Aldrich; purchased Sigma-Aldrich (Poznań, Poland); host or cells: porcine kidney
T1 sequence (P15145 1-963): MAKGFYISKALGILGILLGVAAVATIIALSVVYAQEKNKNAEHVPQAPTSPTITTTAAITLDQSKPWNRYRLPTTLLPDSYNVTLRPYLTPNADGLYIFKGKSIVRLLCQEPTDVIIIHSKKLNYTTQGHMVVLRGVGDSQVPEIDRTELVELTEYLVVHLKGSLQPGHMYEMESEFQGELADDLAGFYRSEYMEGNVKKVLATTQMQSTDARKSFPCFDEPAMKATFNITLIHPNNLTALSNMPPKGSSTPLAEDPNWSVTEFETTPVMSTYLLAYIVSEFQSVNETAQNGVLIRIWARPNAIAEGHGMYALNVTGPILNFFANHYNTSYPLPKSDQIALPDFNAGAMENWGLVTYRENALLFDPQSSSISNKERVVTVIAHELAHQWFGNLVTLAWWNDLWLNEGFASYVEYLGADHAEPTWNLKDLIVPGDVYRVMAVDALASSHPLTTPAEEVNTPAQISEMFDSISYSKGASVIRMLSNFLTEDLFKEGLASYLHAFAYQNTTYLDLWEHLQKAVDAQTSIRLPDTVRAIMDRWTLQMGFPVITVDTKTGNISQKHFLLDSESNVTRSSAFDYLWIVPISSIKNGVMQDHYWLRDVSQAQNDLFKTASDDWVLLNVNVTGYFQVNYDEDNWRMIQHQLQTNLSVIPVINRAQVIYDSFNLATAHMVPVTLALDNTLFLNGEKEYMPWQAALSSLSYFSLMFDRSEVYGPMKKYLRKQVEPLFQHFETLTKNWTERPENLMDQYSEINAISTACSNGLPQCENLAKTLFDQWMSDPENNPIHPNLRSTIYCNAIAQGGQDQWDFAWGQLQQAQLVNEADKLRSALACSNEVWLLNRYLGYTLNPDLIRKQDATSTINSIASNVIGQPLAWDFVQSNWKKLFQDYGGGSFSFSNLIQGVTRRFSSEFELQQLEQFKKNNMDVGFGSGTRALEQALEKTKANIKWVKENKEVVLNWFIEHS
Excerpt: (§1) Chemical and biochemical materials were purchased from Sigma-Aldrich (Poznań, Poland) and Avantor Performance Materials (Gliwice, Poland), and were used without further purification. Fluorogenic substrate Ala-AMC (L-alanine-4-methylcoumaryl-7-amide) was purchased from PeptaNova (Sandhausen, Germany). Microsomal alanyl aminopeptidase from porcine kidney (SsAPN) was purchased from Sigma-Aldrich (Poznań, Poland), and recombinant human alanine aminopeptidase (HsAPN) from R&D System (Minneapolis, MN, USA). Leucine aminopeptidase from porcine kidney (SsLAP) and barley seeds (HvLAP) were isolated and purified according to the procedures described previously. ^1H, ^13C, and ^31P NMR spectra were recorded on a 400YH (JEOL, Tokyo, Japan) spectrometer at 295 K. Mass spectra analyses were performed on a spectrometer LC-MS QDa (Waters e2695, 2489 UV/Vis Detector, Acquity QDa detector). HRMS spectra were registered using a Waters LCT Premier XE mass spectrometer (electrospray ionization, ESI) (Waters, Milford, MA, USA). The progress of the enzymatic reactions was monitored spectrophotometrically (UV-VIS Spectrophotometer, JASCO V-730) by following the change in absorbance at 405 nm (formation of p-nitroaniline), or by measuring fluorescence with a spectrofluorometer SpectraMax Gemini EM (Molecular Devices, San Jose, CA, USA) operating at two wavelengths: excitation 355 nm and emission 460 nm (for AMC).
(§2) The current studies followed the methodologies of the enzyme kinetic experiments, with calculation of the inhibition constants, and the mechanism of inhibition, which are presented in detail in our previous papers: For microsomal alanyl aminopeptidase from porcine kidney, recombinant human alanine aminopeptidase, leucine aminopeptidase from porcine kidney, and leucine aminopeptidase from barley seeds ([…]).

[2] = molecular target: T2, recombinant human alanine aminopeptidase (HsAPN) (Homo sapiens, UniProt P15144); experiment: Inhibition of recombinant human alanine aminopeptidase (enzyme kinetics); format: biochemical; conditions: for Ki: human APN; for Activity for human APN (in words): summary statement
T2 construct: purchased R&D System (Minneapolis, MN, USA)
T2 sequence (P15144 whole entry): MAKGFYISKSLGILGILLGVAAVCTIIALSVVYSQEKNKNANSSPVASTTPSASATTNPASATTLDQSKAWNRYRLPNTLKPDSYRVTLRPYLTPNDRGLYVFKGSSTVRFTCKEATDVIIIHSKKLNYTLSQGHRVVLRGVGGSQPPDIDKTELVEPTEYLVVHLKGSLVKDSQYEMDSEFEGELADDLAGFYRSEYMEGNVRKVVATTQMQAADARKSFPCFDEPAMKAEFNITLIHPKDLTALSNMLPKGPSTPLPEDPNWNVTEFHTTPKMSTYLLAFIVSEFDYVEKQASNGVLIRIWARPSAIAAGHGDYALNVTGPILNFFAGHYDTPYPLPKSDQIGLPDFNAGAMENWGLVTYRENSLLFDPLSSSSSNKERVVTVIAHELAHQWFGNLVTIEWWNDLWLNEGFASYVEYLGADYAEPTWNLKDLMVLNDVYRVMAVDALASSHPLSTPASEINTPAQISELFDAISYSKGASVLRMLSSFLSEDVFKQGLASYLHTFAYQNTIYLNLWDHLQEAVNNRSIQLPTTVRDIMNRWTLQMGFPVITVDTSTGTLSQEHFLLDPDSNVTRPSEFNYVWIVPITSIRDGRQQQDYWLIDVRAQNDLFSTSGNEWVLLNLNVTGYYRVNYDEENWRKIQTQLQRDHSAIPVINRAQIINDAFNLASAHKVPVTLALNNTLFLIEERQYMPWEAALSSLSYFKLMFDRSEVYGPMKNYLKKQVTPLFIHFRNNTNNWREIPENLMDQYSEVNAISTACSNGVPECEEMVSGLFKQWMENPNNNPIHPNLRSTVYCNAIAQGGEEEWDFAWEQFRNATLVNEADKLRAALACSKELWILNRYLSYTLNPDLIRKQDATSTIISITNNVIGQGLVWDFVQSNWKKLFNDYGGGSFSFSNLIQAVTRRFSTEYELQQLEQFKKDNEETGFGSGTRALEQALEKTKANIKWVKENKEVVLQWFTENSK
Excerpt: as §1, §2

[3] = molecular target: T3, leucine aminopeptidase from porcine kidney (SsLAP) (Sus scrofa, UniProt P28839); experiment: Inhibition of porcine kidney leucine aminopeptidase (enzyme kinetics); format: biochemical; conditions: porcine kidney LAP; compounds assayed as racemic mixtures
T3 construct: Leucine aminopeptidase from porcine kidney (SsLAP) [26] and barley seeds (HvLAP) [21] were isolated and purified; from tissue; host or cells: porcine kidney
T3 sequence (P28839 1-519): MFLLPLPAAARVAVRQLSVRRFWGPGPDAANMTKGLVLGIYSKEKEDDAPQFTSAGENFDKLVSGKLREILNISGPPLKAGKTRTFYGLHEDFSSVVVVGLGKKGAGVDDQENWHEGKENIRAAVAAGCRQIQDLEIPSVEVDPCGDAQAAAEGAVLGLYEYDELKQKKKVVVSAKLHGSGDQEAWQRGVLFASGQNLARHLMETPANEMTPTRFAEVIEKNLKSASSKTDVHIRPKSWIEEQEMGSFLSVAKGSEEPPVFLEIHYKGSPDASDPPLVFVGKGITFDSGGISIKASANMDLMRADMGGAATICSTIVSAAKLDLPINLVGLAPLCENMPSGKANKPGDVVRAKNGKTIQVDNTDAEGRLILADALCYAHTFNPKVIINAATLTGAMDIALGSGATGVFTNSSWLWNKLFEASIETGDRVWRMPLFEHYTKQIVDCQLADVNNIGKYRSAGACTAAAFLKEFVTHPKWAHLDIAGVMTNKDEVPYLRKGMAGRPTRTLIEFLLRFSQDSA
Excerpt: as §1, §2

[4] = molecular target: T1, microsomal alanyl aminopeptidase from porcine kidney (SsAPN); set-up: method as in doi:10.1016/j.tetlet.2011.04.037; conditions: porcine APN; reference compound, reported previously; cited from earlier work
[5] = molecular target: T3, leucine aminopeptidase from porcine kidney (SsLAP); set-up: method as in doi:10.1016/j.tetlet.2011.04.037; conditions: porcine kidney LAP; reference compound, reported previously; cited from earlier work
thermolysin = conditions: competitive tight-binding inhibitor; cited from earlier work
[6] = compounds assayed as racemic mixtures, read-out: Ki HsAPN

| SMILES | Ki [1] | Ki [2, 6] | Activity for human APN (in words) [2] | Ki [3] | Ki ([2]; value of the abstract, read-out: Ki human alanyl aminopeptidase) | Ki [4] | Ki [5] | Ki thermolysin (in words) (thermolysin) |
| --- | --- | --- | --- | --- | --- | --- | --- | --- |
| NC(CCc1ccccc1)P(=O)(O)CN(CC(=O)O)Cc1ccccc1 (stereo not drawn) [compound 1] |  |  |  |  |  | 3 µM | 52 µM |  |
| NC(CCc1ccccc1)P(=O)(O)CN(CC(=O)O)Cc1ccc(C(=O)O)cc1 (stereo not drawn) [6c, N-{[1-Amino-3-phenylpropyl(hydroxy)phosphoryl]methyl}-N-4-carboxybenzylaminoacetic acid] | 34 µM | 1400 nM |  | 27 µM |  |  |  |  |
| CC(C)CC(NP(=O)(O)C(Cc1ccccc1)NC(=O)OCc1ccccc1)C(=O)NC(C)C(=O)O (stereo not drawn) [Cbz-PheP[NH]Leu-Ala-OH] |  |  |  |  |  |  |  | picomolar range |
| NC(CCc1ccccc1)P(=O)(O)CN(CC(=O)O)Cc1ccc([N+](=O)[O-])cc1 (stereo not drawn) [6d, N-{[1-Amino-3-phenylpropyl(hydroxy)phosphoryl]methyl}-N-4-nitrobenzylaminoacetic acid] | 17 µM | 240 nM | potent submicromolar activity | 53 µM |  |  |  |  |
| NC(CCc1ccccc1)P(=O)(O)CNCC(=O)O (stereo not drawn) [6g, N-{[1-Amino-3-phenylpropyl(hydroxy)phosphoryl]methyl}aminoacetic acid] | 63 µM |  |  | 29 µM |  |  |  |  |

More lines, main results first:

| Ki [1] | Ki [2, 6] | Activity for human APN (in words) [2] | Ki [3] | Ki ([2]; value of the abstract, read-out: Ki human alanyl aminopeptidase) | SMILES | Ki [4] | Ki [5] | Ki thermolysin (in words) (thermolysin) |
| --- | --- | --- | --- | --- | --- | --- | --- | --- |
| 5.8 µM | 130 nM | potent submicromolar activity | 168 µM |  | NC(CCc1ccccc1)P(=O)(O)CN(CC(=O)O)Cc1ccc(Br)cc1 (stereo not drawn) [6b, N-{[1-Amino-3-phenylpropyl(hydroxy)phosphoryl]methyl}-N-4-bromobenzylaminoacetic acid] |  |  |  |
| 7.7 µM | 100 nM | potent submicromolar activity | 107 µM | 102 nM | NC(CCc1ccccc1)P(=O)(O)CN(CC(=O)O)Cc1ccc(Cl)cc1Cl (stereo not drawn) [6a, N-{[1-Amino-3-phenylpropyl(hydroxy)phosphoryl]methyl}-N-2,4-dichlorobenzylaminoacetic acid] |  |  |  |
